Source: patent US20220017516A1, “LOX INHIBITORS” (THE INSTITUTE OF CANCER RESEARCH: ROYAL CANCER HOSPITAL, priority 2018, published 2022)
Where two headings read alike, the source gives them in different places.

Assays:
LOXL2 = molecular target: T1, LOXL2 (Homo sapiens, UniProt Q9Y4K0); test: LOX isoform activity assay (ROS Glo), LOXL2; format: biochemical
T1 construct: purchased R&D Systems/Bio-techne
T1 sequence (Q9Y4K0 26-774): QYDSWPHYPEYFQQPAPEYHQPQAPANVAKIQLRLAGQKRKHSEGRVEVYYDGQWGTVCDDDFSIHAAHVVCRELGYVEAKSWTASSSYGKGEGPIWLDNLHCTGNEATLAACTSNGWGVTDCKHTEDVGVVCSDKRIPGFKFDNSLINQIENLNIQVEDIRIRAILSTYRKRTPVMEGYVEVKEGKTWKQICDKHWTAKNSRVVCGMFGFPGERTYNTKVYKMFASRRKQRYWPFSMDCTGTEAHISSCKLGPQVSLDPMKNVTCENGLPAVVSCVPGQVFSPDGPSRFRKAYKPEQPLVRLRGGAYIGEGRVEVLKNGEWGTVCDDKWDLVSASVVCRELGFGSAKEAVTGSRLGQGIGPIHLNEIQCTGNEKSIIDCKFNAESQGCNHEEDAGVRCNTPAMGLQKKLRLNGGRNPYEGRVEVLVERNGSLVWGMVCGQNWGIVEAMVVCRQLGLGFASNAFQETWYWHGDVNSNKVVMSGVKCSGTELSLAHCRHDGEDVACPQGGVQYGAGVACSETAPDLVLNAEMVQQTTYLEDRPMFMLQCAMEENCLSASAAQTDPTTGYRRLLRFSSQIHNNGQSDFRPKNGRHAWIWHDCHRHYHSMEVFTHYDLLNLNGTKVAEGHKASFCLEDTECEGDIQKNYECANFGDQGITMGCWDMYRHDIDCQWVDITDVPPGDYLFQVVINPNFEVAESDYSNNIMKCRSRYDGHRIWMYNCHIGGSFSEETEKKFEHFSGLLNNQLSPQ
Protocol: (§1) LOX was extracted from pig skin by previously described methods (Shackleton and Hulmes, 1990). LOXL2 and LOXL3 were obtained from R&D Systems/Bio-techne. The Promega ROS Glo assay kit (G8821) was used to assess enzyme activity. Overall, test compound was added to either 384 well assay plates (Greiner) using a Labcyte Echo™ Acoustic Handler or to 96 well plates for a final assay concentration of 100, 30, 10, 3, 1, 0.3, 0.1, 0.03, 0.01 and 0.003 μM final assay concentration. Enzymes were diluted according to specific pre-determined activity in assay buffer (100 mM CHES, pH 9, 0.05% (w/v) pluronic F-127, 0.5% (w/v) BSA, 1 mM MgCl2, 1 M urea, 100 mM NaCl) and added to the plate. For LOXL2, the mixture was incubated for 20 min, 1 h or 20 h; for LOX and LOXL3, incubation time was 1 h. Cadaverine and H2O2 substrate were then added to each well (final assay concentration 19.56 mM and 25 μM respectively) and the plates were incubated for 1.5 h (for LOX) or 1 h (for LOXL2 and LOXL3) at room temperature. Finally, luciferin detection reagent was added and plates were incubated for 20 min at room temperature, protected from light. Luminescence was measured using a BMG LABTECH PHERAstar FS reader and resulting IC50 values were calculated using GraphPad Prism software.
In another setting, LOXL2 enzyme was diluted according to specific pre-determined activity in assay buffer (100 mM CHES, pH 9, 0.05% (w/v) pluronic F-127, 0.5% (w/v) BSA, 1 mM MgCl2, 1 M urea, 100 mM NaCl). Overall, 0.5 μl test compound was added to 40 μl assay buffer+LOXL2 at 100, 30, 10, 3, 1, 0.3, 0.1, 0.03, 0.01 and 0.003 μM (final concentration) in a 96-well white polystyrene, flat bottom plates (Fisher) and incubated for the indicated time at room temperature. 10 μl of assay buffer containing 97.8 mM cadaverine and 125 μM H2O2 substrate (final assay concentration 19.56 mM and 25 μM respectively) were added to each well and plates were incubated for 1 h at room temperature. Finally, 50 μl per well luciferin detection reagent was added and plates were incubated for 20 min at room temperature, protected from light. Luminescence was measured with an integration time of 500 ms per well using a SpectaMax M5 plate reader and resulting IC50 values were calculated using GraphPad Prism software.

LOX = molecular target: T2, LOX (Sus scrofa, UniProt P45845); test: LOX isoform activity assay (ROS Glo), LOX; format: biochemical, pig; details: 1 h incubation with enzyme
T2 construct: LOX was extracted from pig skin by previously described methods; from tissue; host or cells: pig skin
T2 sequence (P45845 1-249): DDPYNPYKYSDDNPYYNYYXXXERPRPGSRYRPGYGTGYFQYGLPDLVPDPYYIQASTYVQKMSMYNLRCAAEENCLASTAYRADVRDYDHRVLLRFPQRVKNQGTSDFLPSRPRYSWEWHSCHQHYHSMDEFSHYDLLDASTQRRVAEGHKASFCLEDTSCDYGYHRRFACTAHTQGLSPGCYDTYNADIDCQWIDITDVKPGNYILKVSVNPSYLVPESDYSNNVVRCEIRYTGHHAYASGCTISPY
Protocol: as §1

[1] = molecular target: T3, monoamine oxidase B (MAO-B) (Homo sapiens, UniProt P27338); test: Amine oxidase activity assay (MAO-Glo), MAO-B; format: biochemical
T3 construct: purchased Sigma M7441
T3 sequence (P27338 1-520): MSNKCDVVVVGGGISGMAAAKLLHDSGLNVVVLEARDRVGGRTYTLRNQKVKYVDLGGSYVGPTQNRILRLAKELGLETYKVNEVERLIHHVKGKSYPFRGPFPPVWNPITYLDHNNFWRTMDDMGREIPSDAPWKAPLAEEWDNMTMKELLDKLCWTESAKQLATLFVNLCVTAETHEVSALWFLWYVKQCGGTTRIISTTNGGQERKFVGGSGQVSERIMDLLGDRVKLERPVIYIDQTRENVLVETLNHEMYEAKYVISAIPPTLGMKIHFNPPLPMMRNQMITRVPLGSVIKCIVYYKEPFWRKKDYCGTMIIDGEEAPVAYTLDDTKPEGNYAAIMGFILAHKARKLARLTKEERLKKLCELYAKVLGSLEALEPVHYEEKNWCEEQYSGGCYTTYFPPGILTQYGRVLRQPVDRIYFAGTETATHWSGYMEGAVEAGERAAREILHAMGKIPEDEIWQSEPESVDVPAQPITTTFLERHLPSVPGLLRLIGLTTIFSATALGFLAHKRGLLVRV
Protocol: (§2) The Promega MAO-Glo assay kit (V1402) was used to assess monoamine oxidase A (MAO-A) and monoamine oxidase B (MAO-B) activity. MAO substrate was prepared at 80 μM with the specific MAO-A/B reaction buffer. Overall, 0.5 μl test compound was added to 25 μl MAO substrate at 100, 30, 10, 3, 1, 0.3, 0.1, 0.03, 0.01 and 0.003 μM (final concentration) in a 96-well white, flat bottom plate. Overall, 25 μl of 1:520 dilution of MAO-A enzyme (Promega, V1452) or 25 μl of 1:52 dilution of MAO-B enzyme (Sigma, M7441) in specific MAO-A/B reaction buffer was added to each well (enzyme prepared at 2×final concentration) and plates were incubated for 1 h at room temperature. Finally, 50 μl per well luciferin detection reagent was added and plates were incubated for 20 min at room temperature, protected from light. Luminescence was measured with an integration time of 500 ms per well using a SpectaMax M5 plate reader and resulting IC50 values were calculated using GraphPad Prism software.
(§3) In another setting, the DAO and MAO assays were performed in 384-well plates (Greiner) and test compound was added using a Labcyte Echo™ Acoustic Handler for the same final concentrations as in the 96-well setting. Luminescence was measured with BMG LABTECH PHERAstar FS plate reader.

[2] = molecular target: T4, monoamine oxidase A (MAO-A) (Homo sapiens, UniProt P21397); test: Amine oxidase activity assay (MAO-Glo), MAO-A; format: biochemical
T4 construct: purchased Promega V1452
T4 sequence (P21397 1-527): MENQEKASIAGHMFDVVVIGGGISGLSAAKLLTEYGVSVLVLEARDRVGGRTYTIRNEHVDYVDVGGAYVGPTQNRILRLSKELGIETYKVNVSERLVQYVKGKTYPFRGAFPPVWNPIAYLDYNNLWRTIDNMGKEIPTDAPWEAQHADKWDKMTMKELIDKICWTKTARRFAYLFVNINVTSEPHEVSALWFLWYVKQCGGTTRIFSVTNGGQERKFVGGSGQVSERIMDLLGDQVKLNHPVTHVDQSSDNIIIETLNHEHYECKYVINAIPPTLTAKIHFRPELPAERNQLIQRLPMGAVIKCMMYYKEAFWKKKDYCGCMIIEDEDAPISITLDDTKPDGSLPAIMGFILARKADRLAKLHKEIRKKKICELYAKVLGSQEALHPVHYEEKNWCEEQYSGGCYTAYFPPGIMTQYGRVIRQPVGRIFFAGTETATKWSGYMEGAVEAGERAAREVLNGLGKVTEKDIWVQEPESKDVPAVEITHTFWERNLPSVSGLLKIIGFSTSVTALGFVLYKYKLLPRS
Protocol: as §2, §3

[3] = 20 hr incubation with enzyme; read-out: LOXL2 IC50 c) 20 hr
[4] = 1 hr incubation with enzyme; read-out: LOXL2 IC50 b) 1 hr
[5] = 20 min incubation with enzyme; read-out: LOXL2 IC50 a) 20 min

SMILES	IC50 (LOXL2; [3]) [µM]	IC50 (LOX) [µM]	other results
CC1(C)C[C@@H]2CN(C(=O)NCCO)C[C@H]1N(c1ccc(OCCCS(=O)(=O)CCN)cc1)C2 [Example 34, (1S,5S)-6-(4-(3-((2-aminoethyl)sulfonyl)propoxy)phenyl)-N-(2-hydroxyethyl)-9,9-dimethyl-3,6-diazabicyclo[3.2.2]nonane-3-carboxamide]	9.3	–	–
CCNC(=O)N1C[C@@H]2CN(c3ccc(OCCCS(=O)(=O)CCN)cc3)[C@H](C1)C(C)(C)C2 [Example 36, (1S,5S)-6-(4-(3-((2-aminoethyl)sulfonyl)propoxy)phenyl)-N-ethyl-9,9-dimethyl-3,6-diazabicyclo[3.2.2]nonane-3-carboxamide]	5.1	4.5	–
CC1(C)C[C@@H]2CN(CCS(=O)(=O)CCN)C[C@H]1N(c1ccc(N3CCS(=O)(=O)CC3)cc1)C2 [Example 5, 4-(4-((1R,5S)-3-(2-((2-aminoethyl)sulfonyl)ethyl)-9,9-dimethyl-3,6-diazabicyclo[3.2.2]nonan-6-yl)phenyl)thiomorpholine 1,1-dioxide]	0.48	–	–
CC1(C)C[C@@H]2CN(C(=O)N3CCS(=O)(=O)CC3)C[C@H]1N(c1ccc(OCCCS(=O)(=O)CCN)cc1)C2 [Example 35, ((1S,5S)-6-(4-(3-((2-aminoethyl)sulfonyl)-propoxy)phenyl)-9,9-dimethyl-3,6-diaza-bicyclo[3.2.2]nonan-3-yl)(1,1-dioxido-thiomorpholino) methanone]	6.7	–	–
CCOc1ccc(N2C[C@H]3CN(C(=O)C(C)S(=O)(=O)CCN)C[C@@H]2C(C)(C)C3)cc1 (mixture of isomers) [Example 39, 2-((2-aminoethyl)sulfonyl)-1-((1S,5S)-6-(4-ethoxyphenyl)-9,9-dimethyl-3,6-diazabicyclo[3.2.2]nonan-3-yl)propan-1-one]	–	10	IC50 (LOXL2; [4]): 0.41 µM
CCOc1ccc(N2C[C@H]3CN(CCCS(=O)(=O)CCN)C[C@@H]2C(C)(C)C3)cc1 [Example 6, 2-((3-((1R,5S)-6-(4-ethoxyphenyl)-9,9-dimethyl-3,6-diazabicyclo[3.2.2]nonan-3-yl)propyl)sulfonyl)ethan-1-amine]	2.5	58	–
CC1(C)C[C@@H]2CN(C(=O)C(F)S(=O)(=O)CCN)C[C@H]1N(c1ccc(N3CCS(=O)(=O)CC3)cc1)C2 (stereo partly drawn) [Example 17, 2-((2-aminoethyl)-sulfonyl)-1-((1S,5S)-6-(4-(1,1-dioxido-thiomorpholino)-phenyl)-9,9-dimethyl-3,6-diaza-bicyclo[3.2.2]nonan-3-yl)-2-fluoroethan-1-one]	–	–	IC50 (LOXL2; [4]): 0.11 µM
CCOc1ccc(N2C[C@H]3CN(C(=O)c4ccc(S(=O)(=O)CCN)cc4)C[C@@H]2C(C)(C)C3)cc1 [Example 31, (4-((2-aminoethyl)sulfonyl)phenyl)((1S,5S)-6-(4-ethoxyphenyl)-9,9-dimethyl-3,6-diazabicyclo[3.2.2]nonan-3-yl)methanone]	–	96	IC50 (LOXL2; [5]): 16 µM
CC1(C)C[C@@H]2CN(C(=O)CS(=O)(=O)CCN)C[C@H]1N(c1ccc(N3CCS(=O)(=O)CC3)cc1)C2 [Example 10, 2-((2-aminoethyl)-sulfonyl)-1-((1S,5S)-6-(4-(1,1-dioxido-thiomorpholino)-phenyl)-9,9-dimethyl-3,6-diaza-bicyclo[3.2.2]nonan-3-yl)ethan-1-one]	0.94	–	–
NCCS(=O)(=O)CCN1CCCN(c2ccc(N3CCS(=O)(=O)CC3)cc2)CC1 [Example 3, 4-(4-(4-(2-((2-aminoethyl)sulfonyl)ethyl)-1,4-diazepan-1-yl)phenyl) thiomorpholine-1,1-dioxide]	–	–	IC50 [1]: > 100 µM; IC50 (LOXL2; [5]): 8.1 µM; IC50 [2]: > 100 µM
CCOc1ccc(N2C[C@@H]3CC[C@H]2CN(C(=O)CS(=O)(=O)CCN)C3)cc1 [Example 9, 2-((2-aminoethyl)-sulfonyl)-1-((1S,5S)-6-(4-ethoxyphenyl)-3,6-diazabicyclo-[3.2.2]nonan-3-yl)-ethan-1-one]	0.34	> 100	–
